The source of these data is patent US20240390404A1, “ANTI-HUMAN NOROVIRUS AGENT” (KEIO UNIVERSITY, priority 2018, published 2024).

Molecules are shown by their SMILES.

What all share (type): cell-based
For experiment [1], the system named is human norovirus GII.3 (TCH2004 strain). Description: Human norovirus proliferation inhibition in 2D organoid after 2fp-fucose treatment, GII.3 strain. To be noted: 3 days treatment before infection, days 3 and 6 after infection. How it is done: (§1) Feces of a human norovirus-infected patent contains a large amount of infectious human norovirus. Thus, the feces of a human norovirus-infected patient is suspended in distilled water or the like to a final concentration of about 10%, to thereby prepare a “10% feces suspension.” The 10% feces suspension is about 10-fold diluted with an ENRA medium. The diluted suspension is added to each of the aforementioned wells having the 2D organoid (5 μL/well) and subjected to incubation for about 3 hours, to thereby proliferate human norovirus. As a result of verification, it has been confirmed that human norovirus proliferates to about 100,000 times the initial count through the culture system employing the 2D organoid.
In the Example, there were tested strains of human norovirus obtained from feces of human norovirus infection patients through the aforementioned procedure and stocked before the test. Specifically, three strains belonging to the genetic group 2 (GII) which accounts for 80 to 90% of the infected patients were selected as test targets. The isolated strain lineages included in GII (FIG. 1) were GII. 6 belonging to “Lineage 1,” GII. […]
The effect of 2fp-fucose treatment on proliferation of human norovirus was investigated for each lineage of norovirus. […] 4, and the viral proliferation amount was determined on days 3 and 6 after infection (FIG. 4).

In experiment [2] the test system is human norovirus GII.4 (K2017 strain). Description: Human norovirus proliferation inhibition in 2D organoid after agent pre-treatment, GII.4 strain. How it is done: as §1
In the Example, there were tested strains of human norovirus obtained from feces of human norovirus infection patients through the aforementioned procedure and stocked before the test. Specifically, three strains belonging to the genetic group 2 (GII) which accounts for 80 to 90% of the infected patients were selected as test targets. The isolated strain lineages included in GII (FIG. 1) were GII. 6 belonging to “Lineage 1,” GII. 3 belonging to “Lineage 2,” and GII.4 belonging to “Lineage 3” (GII. 6: K2017 strain, GII.3: TCH2004 strain, and GII. 4: K2017 strain).
The effect of 2fp-fucose treatment on proliferation of human norovirus was investigated for each lineage of norovirus. Specifically, after the 2fp-fucose treatment for 3 days, the 2D organoid was infected with each of the aforementioned norovirus strains GII.6, GII. 3, and GII. 4, and the viral proliferation amount was determined on days 3 and 6 after infection (FIG. 4).
Next, there was investigated the effect of the period of time (the number of days) of the 2fp-fucose treatment performed in advance on the anti-human norovirus action of the fucose analog. Specifically, the strain GII. 4 was treated with 2fp-fucose (several concentrations) for 1 to 4 days. […] However, in the group of 3-day treatment, the proliferation inhibition effect was observed by the 200 μM treatment with a certain range of variation in effectiveness. In the group of 4-day treatment, the proliferation inhibition effect was initially observed by 8 μM treatment, and the effect increased in a concentration-dependent manner to a 2fp-fucose concentration of 200 μM. […] Thus, the highest proliferation inhibition effect was obtained in the 2D organoid system through a 200 μM treatment for 3 to 4 days. The test was repeatedly performed three times. Error bars denote SEMs.
The 2D organoid was treated with an agent for 3 days. The tested agents were (a) 2fp-fucose (200 μM), (b) Sofosbuvir (1 μM), (c) Lamivudine (1 μM), (d) Ribavirin (400 μM), and (e) Mizoribine (100 μM). Subsequently, the thus-treated 2D organoid was infected with human norovirus (the norovirus strain GII.4), and the proliferation inhibition effect was determined (FIG. 6). The test was repeatedly performed three times. Error bars denote SEMs.

The test system of experiment [3] is human norovirus GII. 4 strain or GII. 6 strain. Description: Effect of treatment with 2fp-fucose or 6a-fucose after differentiation, on infection and reinfection (RNA titer by real-time RT-PCR). The following applies: fucose analog 200 μM added on day 5, infection on day (5+2), 3 days culturing. How it is done:
(a) The 2D organoid was disseminated to a 96-well plate. After completion of differentiation induction, two fucose analogs (i.e., 2fp-fucose and 6a-fucose) were each added on day 5 to a concentration of 200 μM, to thereby provide addition groups. The results are shown in FIG. 14(a) and FIG. 14(b), respectively. A non-addition group (untreated group) was also provided. Subsequently, the medium was removed from the wells on day (5+2), and the plate was washed. Then, infection with the GII. 4 strain or the GII. 6 strain was performed.
After the infection treatment, the human norovirus remaining in the medium was removed together with the medium, and the plate was washed thrice with a new medium. After washing, the aforementioned active ingredients were each added to the new medium to a concentration of 200 μM (addition groups), and no addition was performed with respect to the untreated (i.e., non-addition) group. Culturing was performed for 3 days. A portion (10 μL) of the medium was sampled from each well, and the samples were centrifuged at 10,000 g for 10 minutes, to thereby remove cell precipitates. The amount of human norovirus genomic RNA in the supernatant (1 μL) was determined through real-time RT-PCR.
In the test system, the effect of the anti-norovirus agent of the present invention provided after human norovirus infection was estimated on the basis of the following study. Specifically, among the fucose analog-treated 2D organoid cells, the living cells on growth day 3 (i.e., most of them were not infected with human norovirus, by virtue of the effect of the fucose analog) were subjected to a secondary infection operation (i.e., reinfection). The effect of the fucose analog on the reinfection was investigated.
In a specific procedure, the addition groups were prepared through the same procedure as employed in (a) above. The primarily infected cells were cultured in the presence of the fucose analog (200 μM) for 3 days, and the medium was removed from each culture system. After completion of washing, the cells were infected again with human norovirus, and then the virus was removed together with the medium. After completion of the next washing, a medium containing the fucose analog (200 μM) (represented by Reinf+2f-fuc or Reinf+6a-fuc), or a fucose analog-free medium (represented by Reinf−2f-fuc or Reinf−6a-fuc) was added thereto, and culturing was performed for further 3 days. Similar to the above case, the amount of human norovirus released to the supernatant was determined as an RNA titer. In the graphs, the two bars on the right side correspond to (Reinf+2f-fuc and Reinf+6a-fuc) or (Reinf−2f-fuc and Reinf−6a-fuc).

[4] abbreviates: GII.4, groups of 1-day treatment and 2-day treatment with 2fp-fucose.

`CC(=O)OC1O[C@@H](C)[C@@H](OC(C)=O)[C@@H](OC(C)=O)[C@@H]1F` (stereo partly drawn) [2fp-fucose, (3S,4R,5R,6S)-3-fluoro-6-methyltetrahydro-2H-pyran-2,4,5-triyl triacetate]: the “concentration of complete viral proliferation inhibition” value in experiment [1] is at least 40 µM. For the same molecule, the “concentration of slight viral proliferation inhibition” value in experiment [2] (GII.4 strain, 3 days treatment before infection) turned out to be 40 µM. Also, the “concentration of complete viral proliferation inhibition” value in experiment [2] (GII.4 strain, 3 days treatment before infection, days 3 and 6 after infection) is at least 200 µM. In addition, in experiment [2] (GII.4, 4-day treatment, 1,000 μM), the “proliferation of human norovirus” value is recorded as “slight proliferation of human norovirus was observed”. Also, in experiment [2] (GII.4, agent 200 μM, 3 days treatment before infection), the “viral RNA titer from day 0 to day 7 (proliferation inhibition effect)” value is “no substantial increase in viral RNA titer was observed”. Also, the “concentration at which the proliferation inhibition effect was observed” value in experiment [2] (GII.4, group of 3-day treatment, certain range of variation in effectiveness) was found to be 200 µM. In addition, the “concentration at which the proliferation inhibition effect was initially observed” value in experiment [2] (GII.4, group of 4-day treatment) amounted to 8 µM. For the same molecule, in experiment [2] (setting [4]), the proliferation inhibition effect entry was “no proliferation inhibition effect” and the “proliferation of human norovirus 3 days after inoculation” value is at least 100 fold. Besides, in experiment [2] (GII.4, treatment for 3 to 4 days), the “concentration giving the highest proliferation inhibition effect” value is 200 µM. Further, in experiment [3], the “rise in RNA titer (proliferation of human norovirus) in the addition group” value is “no rise in RNA titer” and the “rise in RNA titer of the untreated group with respect to the administration system” value was at least 10 fold.
